# Data published in ChEMBL document CHEMBL2034973, “Exploring activity cliffs in medicinal chemistry” (J Med Chem, 2012).
# What was measured:
# [1] = biological target: Cathepsin B (Homo sapiens, UniProt P07858); assay: Inhibition of cathepsin B
# [2] = biological target: Procathepsin L (Homo sapiens, UniProt P07711); assay: Inhibition of cathepsin L
# [3] = biological target: T1, Prostaglandin G/H synthase 2 (Homo sapiens, UniProt P35354); assay: Inhibition of COX2
# T1 sequence (P35354 whole entry): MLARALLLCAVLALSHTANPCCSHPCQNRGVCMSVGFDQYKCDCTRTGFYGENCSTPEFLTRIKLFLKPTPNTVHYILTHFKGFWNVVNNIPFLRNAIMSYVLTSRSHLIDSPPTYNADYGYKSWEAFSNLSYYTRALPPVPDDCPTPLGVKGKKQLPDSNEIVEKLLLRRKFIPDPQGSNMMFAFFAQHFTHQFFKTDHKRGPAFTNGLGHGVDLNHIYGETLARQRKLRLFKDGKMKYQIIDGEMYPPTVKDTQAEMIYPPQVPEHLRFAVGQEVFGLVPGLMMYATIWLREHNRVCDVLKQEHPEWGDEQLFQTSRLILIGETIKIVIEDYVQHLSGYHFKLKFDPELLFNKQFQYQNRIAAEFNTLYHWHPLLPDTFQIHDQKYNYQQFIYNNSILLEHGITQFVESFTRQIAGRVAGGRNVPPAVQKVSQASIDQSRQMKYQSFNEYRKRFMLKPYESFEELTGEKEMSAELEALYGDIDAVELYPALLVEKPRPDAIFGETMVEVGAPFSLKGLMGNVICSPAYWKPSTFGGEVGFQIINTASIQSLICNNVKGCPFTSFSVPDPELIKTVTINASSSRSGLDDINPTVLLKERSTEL
# [4] = biological target: Prostaglandin G/H synthase 1 (Homo sapiens, UniProt P23219); assay: Inhibition of COX1
# Prostaglandin G/H synthase 1, sequence (P23219 whole entry): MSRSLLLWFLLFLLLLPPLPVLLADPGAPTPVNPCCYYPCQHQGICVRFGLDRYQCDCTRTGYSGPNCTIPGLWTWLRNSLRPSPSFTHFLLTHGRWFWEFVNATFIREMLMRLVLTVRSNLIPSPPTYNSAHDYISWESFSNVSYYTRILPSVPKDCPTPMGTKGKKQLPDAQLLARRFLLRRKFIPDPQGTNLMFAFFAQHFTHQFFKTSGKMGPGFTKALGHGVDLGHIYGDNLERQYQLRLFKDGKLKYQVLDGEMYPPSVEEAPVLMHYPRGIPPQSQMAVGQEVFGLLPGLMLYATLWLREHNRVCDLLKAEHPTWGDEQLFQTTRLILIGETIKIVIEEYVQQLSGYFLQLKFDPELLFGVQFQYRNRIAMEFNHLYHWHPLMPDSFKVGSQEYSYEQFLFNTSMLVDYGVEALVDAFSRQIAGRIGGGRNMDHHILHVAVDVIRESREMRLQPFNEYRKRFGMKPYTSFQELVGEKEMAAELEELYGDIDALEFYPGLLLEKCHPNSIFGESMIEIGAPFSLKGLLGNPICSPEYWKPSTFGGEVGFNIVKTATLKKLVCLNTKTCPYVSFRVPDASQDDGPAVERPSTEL
# Procathepsin L, sequence (P07711 whole entry): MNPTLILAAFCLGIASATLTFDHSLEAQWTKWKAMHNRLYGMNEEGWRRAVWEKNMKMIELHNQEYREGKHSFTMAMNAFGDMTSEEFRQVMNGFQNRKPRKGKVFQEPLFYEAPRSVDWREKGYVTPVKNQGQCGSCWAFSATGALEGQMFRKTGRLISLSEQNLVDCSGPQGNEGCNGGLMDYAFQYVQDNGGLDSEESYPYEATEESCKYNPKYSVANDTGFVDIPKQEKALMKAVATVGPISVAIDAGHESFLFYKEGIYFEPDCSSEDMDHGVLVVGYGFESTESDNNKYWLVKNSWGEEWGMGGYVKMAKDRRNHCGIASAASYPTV
Compound,IC50 [1],IC50 [2],IC50 [3],IC50 [4]
N#CCNC(=O)C1CCCCC1CSc1ccccc1 (stereo unspecified),5.3 µM,26 µM,,
N#CCNC(=O)C1CCCCC1CSc1cccc(Cl)c1 (stereo unspecified),102 µM,3.6 µM,,
Cc1ccc(Nc2c(F)cccc2Cl)c(CC(=O)O)c1 [LUMIRACOXIB],,,> 10 µM,0.007 µM
